These results are taken from ChEMBL document CHEMBL3991601, “The target landscape of clinical kinase drugs” (Science, 2017).

The source made the active and inactive calls.

Assay [1] deals with Receptor-interacting serine/threonine-protein kinase 3 (Homo sapiens, UniProt Q9Y572).
Assay [2] concerns the target T1, Mitogen-activated protein kinase kinase kinase 5 (Homo sapiens, UniProt Q99683).
T1 sequence (Q99683 whole entry): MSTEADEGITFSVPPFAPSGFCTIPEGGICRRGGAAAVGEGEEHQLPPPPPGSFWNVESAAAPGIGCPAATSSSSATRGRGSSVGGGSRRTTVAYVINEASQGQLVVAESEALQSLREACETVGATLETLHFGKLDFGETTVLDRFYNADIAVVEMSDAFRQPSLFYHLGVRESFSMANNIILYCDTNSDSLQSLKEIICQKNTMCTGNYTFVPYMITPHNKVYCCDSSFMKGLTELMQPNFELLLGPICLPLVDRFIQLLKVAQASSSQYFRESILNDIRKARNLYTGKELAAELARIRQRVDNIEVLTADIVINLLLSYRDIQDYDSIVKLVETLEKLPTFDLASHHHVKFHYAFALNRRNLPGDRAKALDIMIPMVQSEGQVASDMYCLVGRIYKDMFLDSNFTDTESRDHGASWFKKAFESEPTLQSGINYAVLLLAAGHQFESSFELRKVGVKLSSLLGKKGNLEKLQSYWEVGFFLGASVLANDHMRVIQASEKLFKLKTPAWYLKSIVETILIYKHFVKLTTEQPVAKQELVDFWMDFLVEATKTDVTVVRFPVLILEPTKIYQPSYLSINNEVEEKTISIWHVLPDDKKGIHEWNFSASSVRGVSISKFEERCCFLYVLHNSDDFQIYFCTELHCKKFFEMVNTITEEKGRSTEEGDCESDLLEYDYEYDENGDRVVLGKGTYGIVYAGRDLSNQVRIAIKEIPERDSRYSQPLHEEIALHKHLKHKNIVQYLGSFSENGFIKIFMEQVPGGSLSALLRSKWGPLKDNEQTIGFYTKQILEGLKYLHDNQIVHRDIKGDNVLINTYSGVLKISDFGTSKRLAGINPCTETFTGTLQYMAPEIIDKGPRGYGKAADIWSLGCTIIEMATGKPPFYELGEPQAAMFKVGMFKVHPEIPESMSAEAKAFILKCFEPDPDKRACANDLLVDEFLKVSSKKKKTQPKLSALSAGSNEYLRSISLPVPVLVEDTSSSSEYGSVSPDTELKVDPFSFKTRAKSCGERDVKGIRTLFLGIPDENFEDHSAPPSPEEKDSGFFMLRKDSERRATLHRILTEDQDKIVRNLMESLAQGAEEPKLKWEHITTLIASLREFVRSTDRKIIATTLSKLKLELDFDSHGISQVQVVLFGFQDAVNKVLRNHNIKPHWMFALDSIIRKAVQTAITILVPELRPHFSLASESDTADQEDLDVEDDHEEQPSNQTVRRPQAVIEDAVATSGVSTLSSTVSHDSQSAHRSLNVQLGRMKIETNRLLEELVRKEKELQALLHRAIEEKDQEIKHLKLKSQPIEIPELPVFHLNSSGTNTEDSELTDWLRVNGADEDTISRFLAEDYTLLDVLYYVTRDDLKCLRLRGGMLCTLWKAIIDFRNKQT

Assay [3] addresses 5'-AMP-activated protein kinase catalytic subunit alpha-1 (Homo sapiens, UniProt Q13131).
Assay [4] concerns the target cAMP-dependent protein kinase catalytic subunit beta (Homo sapiens, UniProt P22694).
The next assay has as its target Myosin-10 (Homo sapiens, UniProt P35580).
The target of assay [5] is T2, RNA cytidine acetyltransferase (Homo sapiens, UniProt Q9H0A0).
T2 sequence (Q9H0A0 whole entry): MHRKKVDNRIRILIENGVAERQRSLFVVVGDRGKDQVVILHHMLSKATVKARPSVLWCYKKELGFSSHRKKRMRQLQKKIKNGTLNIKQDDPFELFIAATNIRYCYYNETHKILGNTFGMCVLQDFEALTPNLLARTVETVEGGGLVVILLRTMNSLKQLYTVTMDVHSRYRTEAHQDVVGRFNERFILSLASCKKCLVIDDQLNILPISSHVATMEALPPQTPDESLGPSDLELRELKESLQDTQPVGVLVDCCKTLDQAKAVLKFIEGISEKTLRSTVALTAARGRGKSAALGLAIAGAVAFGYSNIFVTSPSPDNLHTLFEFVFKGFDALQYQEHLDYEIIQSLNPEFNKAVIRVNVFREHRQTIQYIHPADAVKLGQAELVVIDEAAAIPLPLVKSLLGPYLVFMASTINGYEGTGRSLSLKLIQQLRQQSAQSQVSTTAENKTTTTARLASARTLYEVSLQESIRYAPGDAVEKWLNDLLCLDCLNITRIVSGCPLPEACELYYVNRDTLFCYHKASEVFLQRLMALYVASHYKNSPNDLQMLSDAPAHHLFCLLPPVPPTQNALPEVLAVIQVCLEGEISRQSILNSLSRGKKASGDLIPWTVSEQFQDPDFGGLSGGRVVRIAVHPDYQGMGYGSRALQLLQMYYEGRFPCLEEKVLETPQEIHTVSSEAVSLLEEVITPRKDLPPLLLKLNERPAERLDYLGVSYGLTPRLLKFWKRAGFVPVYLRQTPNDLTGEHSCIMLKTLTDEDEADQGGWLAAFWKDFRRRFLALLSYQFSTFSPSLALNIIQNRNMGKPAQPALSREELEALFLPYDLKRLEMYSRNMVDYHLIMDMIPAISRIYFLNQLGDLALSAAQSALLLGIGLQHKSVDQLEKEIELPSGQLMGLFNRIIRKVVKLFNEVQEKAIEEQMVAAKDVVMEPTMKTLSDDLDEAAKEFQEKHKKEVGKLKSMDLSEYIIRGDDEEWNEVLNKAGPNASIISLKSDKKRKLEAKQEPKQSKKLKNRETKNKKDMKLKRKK

The target of assay [6] is T3, Adenine phosphoribosyltransferase (Homo sapiens, UniProt P07741).
T3 sequence (P07741 whole entry): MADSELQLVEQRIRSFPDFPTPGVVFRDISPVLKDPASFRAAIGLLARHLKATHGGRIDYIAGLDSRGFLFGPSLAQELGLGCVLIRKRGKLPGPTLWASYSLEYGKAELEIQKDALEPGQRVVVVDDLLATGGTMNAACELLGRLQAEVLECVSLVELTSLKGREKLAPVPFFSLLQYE
Further: in the data inactive means no Kd found up to 30 µM.

Sequence of 5'-AMP-activated protein kinase catalytic subunit alpha-1 (Q13131 whole entry): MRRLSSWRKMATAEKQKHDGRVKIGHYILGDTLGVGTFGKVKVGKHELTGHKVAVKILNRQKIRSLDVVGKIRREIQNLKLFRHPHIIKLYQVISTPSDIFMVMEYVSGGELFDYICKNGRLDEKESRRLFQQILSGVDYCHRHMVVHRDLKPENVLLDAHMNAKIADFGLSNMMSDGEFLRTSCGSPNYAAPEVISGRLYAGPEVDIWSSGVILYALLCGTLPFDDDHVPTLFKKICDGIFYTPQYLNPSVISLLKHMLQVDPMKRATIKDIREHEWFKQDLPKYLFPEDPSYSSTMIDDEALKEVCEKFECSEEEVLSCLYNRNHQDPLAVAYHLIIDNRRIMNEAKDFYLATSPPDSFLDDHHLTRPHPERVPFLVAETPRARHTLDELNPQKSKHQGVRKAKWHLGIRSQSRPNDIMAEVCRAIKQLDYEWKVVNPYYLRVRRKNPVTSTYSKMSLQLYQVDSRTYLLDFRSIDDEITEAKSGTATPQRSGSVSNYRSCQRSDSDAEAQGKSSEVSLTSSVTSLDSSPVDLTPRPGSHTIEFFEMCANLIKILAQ
Sequence of Receptor-interacting serine/threonine-protein kinase 3 (Q9Y572 whole entry): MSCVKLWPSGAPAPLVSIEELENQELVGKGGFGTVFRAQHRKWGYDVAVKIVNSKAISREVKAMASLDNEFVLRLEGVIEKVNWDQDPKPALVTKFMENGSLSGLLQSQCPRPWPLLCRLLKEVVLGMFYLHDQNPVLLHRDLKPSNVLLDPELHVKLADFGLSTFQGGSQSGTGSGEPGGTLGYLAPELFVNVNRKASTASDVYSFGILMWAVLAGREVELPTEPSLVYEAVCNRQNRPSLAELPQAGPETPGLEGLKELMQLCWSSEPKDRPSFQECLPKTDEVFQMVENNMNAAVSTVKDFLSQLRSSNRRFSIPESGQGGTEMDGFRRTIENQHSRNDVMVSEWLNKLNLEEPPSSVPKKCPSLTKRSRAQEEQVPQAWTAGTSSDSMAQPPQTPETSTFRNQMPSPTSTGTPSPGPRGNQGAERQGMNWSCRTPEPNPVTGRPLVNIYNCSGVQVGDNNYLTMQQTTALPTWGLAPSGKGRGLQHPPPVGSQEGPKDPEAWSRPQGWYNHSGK
Sequence of Myosin-10 (P35580 whole entry): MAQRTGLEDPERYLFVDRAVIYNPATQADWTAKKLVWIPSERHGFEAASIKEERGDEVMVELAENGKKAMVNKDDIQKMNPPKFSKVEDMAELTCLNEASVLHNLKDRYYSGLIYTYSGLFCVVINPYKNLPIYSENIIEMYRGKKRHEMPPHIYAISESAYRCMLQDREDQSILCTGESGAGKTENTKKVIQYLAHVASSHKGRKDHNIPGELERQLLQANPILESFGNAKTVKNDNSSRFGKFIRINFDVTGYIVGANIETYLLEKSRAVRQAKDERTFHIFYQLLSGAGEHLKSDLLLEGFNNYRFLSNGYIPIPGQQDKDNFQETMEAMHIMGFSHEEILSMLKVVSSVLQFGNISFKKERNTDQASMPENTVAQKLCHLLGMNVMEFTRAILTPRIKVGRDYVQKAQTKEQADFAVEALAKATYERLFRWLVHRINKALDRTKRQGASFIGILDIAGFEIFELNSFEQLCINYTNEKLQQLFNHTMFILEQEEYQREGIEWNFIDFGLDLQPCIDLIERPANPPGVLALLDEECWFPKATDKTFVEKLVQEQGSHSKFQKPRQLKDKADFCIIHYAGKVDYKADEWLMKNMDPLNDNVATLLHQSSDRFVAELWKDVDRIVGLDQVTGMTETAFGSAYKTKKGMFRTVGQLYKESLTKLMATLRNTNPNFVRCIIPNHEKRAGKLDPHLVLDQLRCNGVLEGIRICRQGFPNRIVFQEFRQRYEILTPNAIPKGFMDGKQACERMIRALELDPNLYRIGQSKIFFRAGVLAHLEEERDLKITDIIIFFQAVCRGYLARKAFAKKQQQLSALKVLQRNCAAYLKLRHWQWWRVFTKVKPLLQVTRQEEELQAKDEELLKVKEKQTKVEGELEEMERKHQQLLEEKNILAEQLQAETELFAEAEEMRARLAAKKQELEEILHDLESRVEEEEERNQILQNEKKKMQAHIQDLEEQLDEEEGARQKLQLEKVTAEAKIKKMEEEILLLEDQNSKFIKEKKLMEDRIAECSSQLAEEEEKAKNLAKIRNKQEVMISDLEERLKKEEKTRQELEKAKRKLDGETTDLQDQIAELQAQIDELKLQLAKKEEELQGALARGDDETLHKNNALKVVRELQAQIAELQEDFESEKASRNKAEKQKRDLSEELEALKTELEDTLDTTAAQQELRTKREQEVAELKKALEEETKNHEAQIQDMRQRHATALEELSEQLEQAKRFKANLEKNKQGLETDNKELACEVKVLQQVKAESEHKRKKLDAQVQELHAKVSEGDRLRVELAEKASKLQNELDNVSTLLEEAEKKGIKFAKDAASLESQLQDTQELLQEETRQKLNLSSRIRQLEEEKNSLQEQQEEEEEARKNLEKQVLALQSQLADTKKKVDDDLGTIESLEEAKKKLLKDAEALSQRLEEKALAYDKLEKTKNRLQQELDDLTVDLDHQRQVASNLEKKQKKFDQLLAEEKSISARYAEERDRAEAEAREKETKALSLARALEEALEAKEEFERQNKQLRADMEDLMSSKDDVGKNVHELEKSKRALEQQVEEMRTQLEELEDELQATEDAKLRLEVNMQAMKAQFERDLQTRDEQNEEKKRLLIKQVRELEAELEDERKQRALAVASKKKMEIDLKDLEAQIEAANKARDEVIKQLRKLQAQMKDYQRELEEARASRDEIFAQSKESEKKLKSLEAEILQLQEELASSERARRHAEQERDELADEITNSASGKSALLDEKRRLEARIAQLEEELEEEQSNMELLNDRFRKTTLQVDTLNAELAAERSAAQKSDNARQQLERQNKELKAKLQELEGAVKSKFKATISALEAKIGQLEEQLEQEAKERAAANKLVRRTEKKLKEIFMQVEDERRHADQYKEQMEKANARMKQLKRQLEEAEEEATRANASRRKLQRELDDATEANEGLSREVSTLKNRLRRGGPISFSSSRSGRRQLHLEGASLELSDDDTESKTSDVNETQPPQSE

For `COc1ccc(S(=O)(=O)N(C(C)=O)c2ccccc2/C=C/c2cc[n+]([O-])cc2)cc1` [HMN-214], the Kd (in assay [1]; in assay [2]; in assay [3]; in assay [4]; at Myosin-10; in assay [5]) was > 30 µM (inactive) in each case. Further, the Kd in assay [6] is > 30 µM (inactive).

For `CNC(=O)c1cccc2cc(Oc3ccnc4cc(OCC5(N)CC5)c(OC)cc34)ccc12` [LUCITANIB], the Kd (in assay [1]; in assay [2]; in assay [3]; in assay [4]; on Myosin-10; in assay [5]) was > 30 µM (inactive) each time. Further, the Kd in assay [6] is > 30 µM (inactive).

Turning to `CN(C[C@@H]1COCCO1)S(=O)(=O)Nc1ccc2ccc3ncc(-c4cnn(C)c4)cc3c(=O)c2c1` [MK-2461], the Kd (in assay [1]; in assay [2]; in assay [3]; in assay [4]; at Myosin-10; in assay [5]) was > 30 µM (inactive) each time. Moreover, the Kd in assay [6] is > 30 µM (inactive).

Consider `COc1ncc(-c2ccc3nccc(-c4ccnnc4)c3c2)cc1NS(=O)(=O)c1ccc(F)cc1F` [OMIPALISIB], for which the Kd (in assay [1]; in assay [2]; in assay [3]; in assay [4]; at Myosin-10; in assay [5]) was > 30 µM (inactive) each time. Besides, the Kd in assay [6] was > 30 µM (inactive).

Regarding `CCOc1cc2ncc(C#N)c(Nc3ccc(F)c(Cl)c3)c2cc1NC(=O)/C=C/CN(C)C` [PELITINIB], the Kd (in assay [1]; in assay [2]; in assay [3]; in assay [4]; at Myosin-10; in assay [5]) was > 30 µM (inactive) throughout. In addition, in assay [6], the Kd was > 30 µM (inactive).

As for `CCCCCCCCCCCCCCCCCCOP(=O)([O-])OC1CC[N+](C)(C)CC1` [PERIFOSINE], the Kd (in assay [1]; in assay [2]; in assay [3]; in assay [4]; on Myosin-10; in assay [5]) was > 30 µM (inactive) in each case. Besides, the Kd in assay [6] was > 30 µM (inactive).

As to `Cc1cnc(NC(=O)Nc2cc(Br)c(C)cc2OC[C@@H]2CNCCO2)cn1` [RABUSERTIB], the Kd (in assay [1]; in assay [2]; in assay [3]; in assay [4]; at Myosin-10; in assay [5]) was > 30 µM (inactive) in each case. Further, the Kd in assay [6] is > 30 µM (inactive).

Consider `CO[C@H]1C[C@@H]2CC[C@@H](C)[C@@](O)(O2)C(=O)C(=O)N2CCCC[C@H]2C(=O)O[C@H]([C@H](C)C[C@@H]2CC[C@@H](OP(C)(C)=O)[C@H](OC)C2)CC(=O)[C@H](C)/C=C(\C)[C@@H](O)[C@@H](OC)C(=O)[C@H](C)C[C@H](C)/C=C/C=C/C=C/1C` [RIDAFOROLIMUS], for which the Kd (in assay [1]; in assay [2]; in assay [3]; in assay [4]; on Myosin-10; in assay [5]) was > 30 µM (inactive) each time. The Kd in assay [6] was > 30 µM (inactive).

For the compound `N#CC1(c2ccc(NC(=O)c3cccnc3NCc3ccncc3)cc2)CCCC1` [RIVOCERANIB], the dissociation constant Kd in assay [1] was 2.37 µM (active); in assay [2], > 30 µM (inactive); in assay [3], > 30 µM (inactive); in assay [4], > 30 µM (inactive); at Myosin-10, > 30 µM (inactive); in assay [5], > 30 µM (inactive). Further, the Kd in assay [6] was > 30 µM (inactive).

In the case of `Cn1cc(-c2cnn3c(N)c(Br)c([C@@H]4CCCNC4)nc23)cn1` [SCH-900776], the Kd (in assay [1]; in assay [2]; in assay [3]; in assay [4]; at Myosin-10; in assay [5]) was > 30 µM (inactive) throughout. Also, the Kd in assay [6] is > 30 µM (inactive).

For the compound `CO[C@H]1C[C@@H]2CC[C@@H](C)[C@@](O)(O2)C(=O)C(=O)N2CCCC[C@H]2C(=O)O[C@H]([C@H](C)C[C@@H]2CC[C@@H](O)[C@H](OC)C2)CC(=O)[C@H](C)/C=C(\C)[C@@H](O)[C@@H](OC)C(=O)[C@H](C)C[C@H](C)/C=C/C=C/C=C/1C` [SIROLIMUS], the Kd (in assay [1]; in assay [2]; in assay [3]; in assay [4]; at Myosin-10; in assay [5]) was > 30 µM (inactive) throughout. Further, the Kd in assay [6] was > 30 µM (inactive).

Turning to `CO[C@H]1C[C@@H]2CC[C@@H](C)[C@@](O)(O2)C(=O)C(=O)N2CCCC[C@H]2C(=O)O[C@H]([C@H](C)C[C@@H]2CC[C@@H](OC(=O)C(C)(CO)CO)[C@H](OC)C2)CC(=O)[C@H](C)/C=C(\C)[C@@H](O)[C@@H](OC)C(=O)[C@H](C)C[C@H](C)/C=C/C=C/C=C/1C` [TEMSIROLIMUS], the Kd (in assay [1]; in assay [2]; in assay [3]; in assay [4]; at Myosin-10; in assay [5]) was > 30 µM (inactive) each time. The Kd in assay [6] was > 30 µM (inactive).

For `COc1cc2c(Nc3ccc(Cl)c(Cl)c3F)ncnc2cc1OC[C@@H]1C[C@@H]2CN(C)C[C@@H]2C1` [TESEVATINIB], the Kd is 0.366 µM (active) in assay [1]; > 30 µM (inactive) in assay [2]; > 30 µM (inactive) in assay [3]; > 30 µM (inactive) in assay [4]; > 30 µM (inactive) on Myosin-10; > 30 µM (inactive) in assay [5]. For the same compound, the Kd in assay [6] is > 30 µM (inactive).
